Laboratory results published in the supplement of paper PMC10307832.

Assays:
Test in all cases: relative viability (nuclei count vs DMSO), 5 days (fraction); higher = more cells survive
[1] = tested on: NCI-H596
In short: (§1)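 Lung cancer cell lines in 1536-well plates were dosed by pin tool the day after seeding, either with one drug alone or with a fixed anchor-drug dose plus five library-drug doses (not always all listed) in √10 steps. After 5 days, cells were fixed and their nuclei stained in one step (final 0.05% Triton X-100, 1% formaldehyde, 1 ug/ml Hoechst), then counted on 4× images. Relative viability is the nuclei count in treated wells divided by that in vehicle wells. Values are medians of duplicate plates.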

[2] = tested on: NCI-H520
In short: as §1

[3] = tested on: RERF-LC-KJ
In short: as §1

[4] = tested on: NCI-H1944
In short: as §1

[5] = tested on: NCI-H727
In short: as §1

[6] = tested on: CAL-12T
In short: as §1

[7] = tested on: HARA
In short: as §1

[8] = tested on: NCI-H838
In short: as §1

[9] = tested on: NCI-H661
In short: as §1

[10] = tested on: NCI-H2085
In short: as §1

[11] = tested on: NCI-H1651
In short: as §1

[12] = tested on: NCI-H1666
In short: as §1

[13] = tested on: NCI-H1975
In short: as §1

[14] = tested on: NCI-H1734
In short: as §1

[15] = tested on: LOU-NH91
In short: as §1

[16] = tested on: NCI-H647
In short: as §1

[17] = tested on: LCLC-103H
In short: as §1

[18] = tested on: NCI-H2126
In short: as §1

[19] = tested on: BEN
In short: as §1

[20] = tested on: SW 900
In short: as §1

[21] = tested on: ABC-1
In short: as §1

[22] = tested on: NCI-H460
In short: as §1

[23] = tested on: A-427
In short: as §1

CCNC(=O)c1noc(-c2cc(C(C)C)c(O)cc2O)c1-c1ccc(CN2CCOCC2)cc1 [Luminespib] + O=C(CCCCCCC(=O)Nc1ccccc1)NO [Vorinostat] (partner 1 µM)
relative viability ([1]; first compound 0.002 µM): 0.61 | relative viability ([1]; first compound 0.006325 µM): 0.553 | relative viability ([1]; first compound 0.02 µM): 0.434 | relative viability ([1]; first compound 0.06325 µM): 0.634 | relative viability ([1]; first compound 0.2 µM): 0.574 | relative viability ([2]; first compound 0.002 µM): 0.748 | relative viability ([2]; first compound 0.006325 µM): 0.747 | relative viability ([2]; first compound 0.02 µM): 0.624 | relative viability ([2]; first compound 0.06325 µM): 0.197 | relative viability ([2]; first compound 0.2 µM): 0.166 | relative viability ([3]; first compound 0.002 µM): 0.624 | relative viability ([3]; first compound 0.006325 µM): 0.707 | relative viability ([3]; first compound 0.02 µM): 0.473 | relative viability ([3]; first compound 0.06325 µM): 0.467 | relative viability ([3]; first compound 0.2 µM): 0.216 | relative viability ([4]; first compound 0.002 µM): 0.549 | relative viability ([4]; first compound 0.006325 µM): 0.571 | relative viability ([4]; first compound 0.02 µM): 0.354 | relative viability ([4]; first compound 0.06325 µM): 0.404 | relative viability ([4]; first compound 0.2 µM): 0.153 | relative viability ([5]; first compound 0.002 µM): 1.1 | relative viability ([5]; first compound 0.006325 µM): 1.21 | relative viability ([5]; first compound 0.02 µM): 0.832 | relative viability ([5]; first compound 0.06325 µM): 1.04 | relative viability ([5]; first compound 0.2 µM): 0.31 | relative viability ([6]; first compound 0.002 µM): 0.725 | relative viability ([6]; first compound 0.006325 µM): 0.802 | relative viability ([6]; first compound 0.02 µM): 0.29 | relative viability ([6]; first compound 0.06325 µM): 0.101 | relative viability ([6]; first compound 0.2 µM): 0.118 | relative viability ([7]; first compound 0.002 µM): 0.51 | relative viability ([7]; first compound 0.006325 µM): 0.504 | relative viability ([7]; first compound 0.02 µM): 0.591 | relative viability ([7]; first compound 0.06325 µM): 0.589 | relative viability ([7]; first compound 0.2 µM): 0.132 | relative viability ([8]; first compound 0.002 µM): 0.778 | relative viability ([8]; first compound 0.006325 µM): 0.655 | relative viability ([8]; first compound 0.02 µM): 0.785 | relative viability ([8]; first compound 0.06325 µM): 0.151 | relative viability ([8]; first compound 0.2 µM): 0.153 | relative viability ([9]; first compound 0.002 µM): 0.777 | relative viability ([9]; first compound 0.006325 µM): 0.803 | relative viability ([9]; first compound 0.02 µM): 0.759 | relative viability ([9]; first compound 0.06325 µM): 0.345 | relative viability ([9]; first compound 0.2 µM): 0.306 | relative viability ([10]; first compound 0.002 µM): 0.797 | relative viability ([10]; first compound 0.006325 µM): 0.717 | relative viability ([10]; first compound 0.02 µM): 0.553 | relative viability ([10]; first compound 0.06325 µM): 0.367 | relative viability ([10]; first compound 0.2 µM): 0.31 | relative viability ([11]; first compound 0.002 µM): 0.516 | relative viability ([11]; first compound 0.006325 µM): 0.481 | relative viability ([11]; first compound 0.02 µM): 0.371 | relative viability ([11]; first compound 0.06325 µM): 0.542 | relative viability ([11]; first compound 0.2 µM): 0.505 | relative viability ([12]; first compound 0.002 µM): 0.983 | relative viability ([12]; first compound 0.006325 µM): 0.994 | relative viability ([12]; first compound 0.02 µM): 1.19 | relative viability ([12]; first compound 0.06325 µM): 1.03 | relative viability ([12]; first compound 0.2 µM): 0.909 | relative viability ([13]; first compound 0.002 µM): 0.736 | relative viability ([13]; first compound 0.006325 µM): 0.632 | relative viability ([13]; first compound 0.02 µM): 0.592 | relative viability ([13]; first compound 0.06325 µM): 0.138 | relative viability ([13]; first compound 0.2 µM): 0.147 | relative viability ([14]; first compound 0.002 µM): 0.719 | relative viability ([14]; first compound 0.006325 µM): 0.719 | relative viability ([14]; first compound 0.02 µM): 0.436 | relative viability ([14]; first compound 0.06325 µM): 0.132 | relative viability ([14]; first compound 0.2 µM): 0.123 | relative viability ([15]; first compound 0.002 µM): 0.935 | relative viability ([15]; first compound 0.006325 µM): 0.872 | relative viability ([15]; first compound 0.02 µM): 0.647 | relative viability ([15]; first compound 0.06325 µM): 0.335 | relative viability ([15]; first compound 0.2 µM): 0.377 | relative viability ([16]; first compound 0.002 µM): 0.584 | relative viability ([16]; first compound 0.006325 µM): 0.381 | relative viability ([16]; first compound 0.02 µM): 0.646 | relative viability ([16]; first compound 0.06325 µM): 0.11 | relative viability ([16]; first compound 0.2 µM): 0.0869 | relative viability ([17]; first compound 0.002 µM): 0.616 | relative viability ([17]; first compound 0.006325 µM): 0.718 | relative viability ([17]; first compound 0.02 µM): 0.661 | relative viability ([17]; first compound 0.06325 µM): 0.75 | relative viability ([17]; first compound 0.2 µM): 0.25 | relative viability ([18]; first compound 0.002 µM): 0.743 | relative viability ([18]; first compound 0.006325 µM): 0.765 | relative viability ([18]; first compound 0.06325 µM): 0.468 | relative viability ([18]; first compound 0.2 µM): 0.192 | relative viability ([19]; first compound 0.002 µM): 0.608 | relative viability ([19]; first compound 0.006325 µM): 0.546 | relative viability ([19]; first compound 0.02 µM): 0.358 | relative viability ([19]; first compound 0.06325 µM): 0.525 | relative viability ([19]; first compound 0.2 µM): 0.36 | relative viability ([20]; first compound 0.002 µM): 0.455 | relative viability ([20]; first compound 0.006325 µM): 0.489 | relative viability ([20]; first compound 0.02 µM): 0.266 | relative viability ([20]; first compound 0.06325 µM): 0.124 | relative viability ([20]; first compound 0.2 µM): 0.0992 | relative viability ([21]; first compound 0.002 µM): 1.34 | relative viability ([21]; first compound 0.006325 µM): 0.291 | relative viability ([21]; first compound 0.02 µM): 1.06 | relative viability ([21]; first compound 0.06325 µM): 0.269 | relative viability ([21]; first compound 0.2 µM): 0.325 | relative viability ([22]; first compound 0.002 µM): 0.775 | relative viability ([22]; first compound 0.006325 µM): 0.68 | relative viability ([22]; first compound 0.02 µM): 0.237 | relative viability ([22]; first compound 0.06325 µM): 0.0162 | relative viability ([22]; first compound 0.2 µM): 0.0131 | relative viability ([23]; first compound 0.002 µM): 0.855 | relative viability ([23]; first compound 0.006325 µM): 0.319 | relative viability ([23]; first compound 0.02 µM): 0.807 | relative viability ([23]; first compound 0.06325 µM): 0.327 | relative viability ([23]; first compound 0.2 µM): 0.247
